Laboratory results: patent publication US11634466B2, “Musclin peptides and methods of use thereof” (UNIVERSITY OF IOWA RESEARCH FOUNDATION, priority 2016, dated 2023)

Assays:
Type in all cases: cell-based
[1] = test system: musclin mRNA in human cultured primary myoblasts; assay: Musclin mRNA normalized to HPRT in human cultured primary myoblasts
Description: (§1) RNA isolation and quantitative reverse transcriptase polymerase chain reaction (qRT-PCR): Total RNA from mouse tissues and primary myocytes was isolated using RNeasy RNA Isolation Kit (Qiagen). A 1 μg primary myocyte or tissue RNA sample was used to synthesize cDNA in 50 μl reactions using Oligo(dT) as primer and SuperScript III Reverse Transcriptase (Invitrogen). Quantitative real-time PCR was performed on Mastercycler epgradient S (Eppendorf) using SYBR green based PCR reactions. For quantitative RT-PCR, 1 μl of reverse transcription reaction was mixed with 10 pmoles each specific primer and 12.5 μl SYBR PCR Master Mix (BioRad). The reaction was incubated for 40 cycles consisting of denaturation at 95° C. for 10 s and annealing/extension at 59.9° C.—for musclin, HPRT, Nrf2, 56° C.—for PGC1α, Tfam, Nrf1, for 1 min. The quality of the PCR product was routinely checked by a thermal denaturation curve following the qPCR reactions. The threshold cycle (CT) was determined by Realplex2 software (Eppendorf), and quantification of relative mRNA levels was performed by ΔΔCT method. The primers used in this study are HPRT: HPRTF—GGACCTCTCGAAGTGTTGGATAC (SEQ ID NO: 16), HPRTR—GCTCATCTTAGGCTTTGTATTTGGCT (SEQ ID NO: 17); musclin: MuscF-TGTGGACTTAGCATCACAGG (SEQ ID NO: 18), MuscR-AGC TGA GAG TCT GTC AAG G (SEQ ID NO: 19); PGC1α: PGC1aF-TGATGTGAATGACTTGGATACAGACA (SEQ ID NO: 20), PGC1αR-GCTCATTGTTGTACTGGTTGGATATG (SEQ ID NO: 21); TfamF—GGAATGTGGAGCGTGCTAAAA (SEQ ID NO: 22), TfamR—TGCTGGAAAAACACTTCGGAATA (SEQ ID NO: 23); Nrf1F—CGC AGC ACC TTT GGA GAA (SEQ ID NO: 24, Nrf1R—CCCGACCTGTGGAATACTTG (SEQ ID NO: 25); Nrf2F—CAG CTC AAG GGC ACA GTG C (SEQ ID NO: 26), Nrf2R—GTG GCC CAA GTC TTG CTC C (SEQ ID NO: 27).
(§2) Mouse primary myoblasts were isolated from gastrocnemius muscle of 4-6 weeks old mice. Fresh muscle tissue was digested with 2 mg/ml collagenase II in DMEM-F12 for 1.5 h at 37° C.; then 30 min at 37° C. with 1 mg/ml collagenase II and 0.5 mg/ml dispase in DMEM-F12. Tissue was ground and passed through a 100 μm then 70 μm cell strainer and spun at 1000 rpm for 10 min. Myoblasts were resuspended in DMEM-F12 supplemented with 20% FBS, 40 ng/ml bFGF, non-essential amino acids, 1 mM β-mercaptoethanol. Cells were plated on matrigel coated dishes. Cells were maintained in DMEM-F12 supplemented with 20% FBS, 10 ng/ml bFGF, non-essential amino acids, 1 mM β-mercaptoethanol until 80% confluent. Then they were differentiated in DMEM-F12 supplemented with 2% FBS and insulin-transferrin-selenium for 10 days. Human skeletal myoblast primary culture (lot #SLSK002, Zenbio, Research Triangle Park, NC) was maintained according to the supplier's manual.

[2] = test system: Akt and FOXO1 phosphorylation in cultured murine primary myoblasts; assay: Akt and FOXO1 phosphorylation by western blot in primary myoblasts with Ca2+ ionophore; details: 1 μM ionophore, 1 mM Ca2+, n=4
Description: Western blotting: Whole cell protein extracts were prepared by homogenizing skeletal muscle tissue in NaCl 150 mM, Tris-HCl 50 mM (pH 7.8), supplemented with 1.5% Triton X-100, protease and phosphatase inhibitors (Roche). Nuclear extracts were obtained using the Subcellular Protein Fractionation Kit for Tissues (Thermo Scientific).
Electrophoresis was performed on 3-8% gradient Nu-Page Tris-Acetate or 10% Nu-Page Bis-Tris gels and transferred to 0.2 μm Sequi-Blot PVDF membranes (Bio-Rad). The membranes were blotted with total AKT1 and phospho-AKT1([…], T308, Cell Signaling), FOXO1 (Cell Signaling), total OXPHOS (rodent, Abcam), musclin (custom rabbit IgG produced against partial mouse musclin sequence NH2-sfsgfgspldrlsagsvehrgkqrkavdhskkr-COOH (SEQ ID NO: 4), corresponding to amino acids 80-112, Gen Bank ID: AAS87598.1, Anaspec, Fremont, Calif.), and GAPDH (Santa Cruz Biotechnologies) antibodies. Densitometric analysis of western blots was performed using Adobe Photoshop (Adobe Systems, San Jose, Calif.).
as §2

[3] = test system: musclin mRNA in murine cultured primary myoblasts; assay: Musclin mRNA normalized to HPRT in murine cultured primary myoblasts
Description: as §1, §2

OPA1 mRNA = OPA1 mRNA normalized to HPRT by PCR in myotube culture; details: n=3
Description: RNA isolation and quantitative reverse transcriptase polymerase chain reaction (qRT-PCR): Total RNA from mouse tissues and primary myocytes was isolated using RNeasy RNA Isolation Kit (Qiagen). A 1 μg primary myocyte or tissue RNA sample was used to synthesize cDNA in 50 μl reactions using Oligo(dT) as primer and SuperScript III Reverse Transcriptase (Invitrogen). Quantitative real-time PCR was performed on Mastercycler epgradient S (Eppendorf) using SYBR green based PCR reactions. For quantitative RT-PCR, 1 μl of reverse transcription reaction was mixed with 10 pmoles each specific primer and 12.5 μl SYBR PCR Master Mix (BioRad). The reaction was incubated for 40 cycles consisting of denaturation at 95° C. for 10 s and annealing/extension at 59.9° C.—for musclin, HPRT, Nrf2, 56° C.—for PGC1α, Tfam, Nrf1, for 1 min. The quality of the PCR product was routinely checked by a thermal denaturation curve following the qPCR reactions. The threshold cycle (CT) was determined by Realplex2 software (Eppendorf), and quantification of relative mRNA levels was performed by relative mRNA levels was performed by ΔΔCT method. […]

[4] = test system: cGMP production in murine primary myoblasts; assay: cGMP production in skeletal myoblast culture exposed to ANP and musclin; details: n=3
Description: Cyclic GMP levels were measured using cyclicGMP EIA kit (Cayman Chemical Company, Ann Arbor, Mich.). Mice were exercised for 5 days, 12 m/min, 45 min before tissue collection. At the day of the experiment mice were exercised 12 m/min, 20 min, sedated with isoflurane and gastrocnemius muscle tissue was collected. Cyclic nucleotides were extracted using 5% trichloracetic acid. Samples were acetylated and used for cGMP level measurements according to the manufacturer's protocol.
as §2

[5] = 0.5 μM ionophore, 1.0 mM Ca2+, n=3
[6] = 1 μM ionophore, 1.0 mM Ca2+, n=3

CNc1ccc2oc(C[C@H]3O[C@@]4(CC[C@H]3C)O[C@H]([C@H](C)C(=O)c3ccc[nH]3)[C@H](C)C[C@H]4C)nc2c1C(=O)O [A23187] was tested. Which “musclin mRNA” value [1, 5] did it give?
The value was 3.02±0.23 AU.

What about the “musclin mRNA” value ([1]; 0.5 μM ionophore, Ca2+-free buffer, n=3, p=NS) of the same molecule?
The value was 0.74±0.18 AU.

What about the “musclin mRNA” value [1, 6] of the same molecule?
Its value is 3.95±0.83 AU.

What about the “musclin mRNA” value ([1]; 1 μM ionophore, Ca2+-free buffer, n=3, p=NS) of the same molecule?
The value was 0.79±0.18 AU.

What about the p-Akt/GAPDH [2] of the same molecule?
Its p-Akt/GAPDH is 0.91±0.05.

And the “pAkt/total Akt” value [2]?
Its value is 0.66±0.03.

And the pFOXO1/GAPDH [2]?
The pFOXO1/GAPDH was 0.39±0.04.

What about the “pFOXO1/total FOXO1” value [2] of the same molecule?
Its value is 0.27±0.03.

What about the “musclin mRNA” value [3, 5] of the same molecule?
The value was 2.20±0.06 AU.

And the “musclin mRNA” value [3, 6]?
The value was 3.60±0.81 AU.

And the “musclin mRNA” value ([3]; ionophore with removal of extracellular Ca2+ from the medium, n=3, p=NS vs. control)?
Its value is 0.96±0.012 AU.

Nc1nc2c(nc(Br)n2[C@@H]2O[C@@H]3COP(=O)(O)O[C@H]3[C@H]2O)c(=O)[nH]1 [8-Br-cGMP] was tested. Which “OPA1 mRNA normalized to HPRT” value (OPA1 mRNA; 8-Br-cGMP) did it give?
The value was 5.61±0.36.

With O=c1[nH]c2ccccc2n1C1CCN(Cc2ccc(-c3nc4cc5[nH]cnc5cc4nc3-c3ccccc3)cc2)CC1 [Akt inhibitor-viii] as the molecule, how does the “musclin mRNA” value ([3]; myoblasts pre-treated with Akt inhibitor-viii before Ca2+ ionophore, n=3, p=NS vs. control) read?
Its value is 1.09±0.03 AU.

With CC[C@H](C)[C@@H]1NC(=O)[C@H](CCCNC(=N)N)NC(=O)[C@H](CC(=O)O)NC(=O)[C@H](CCSC)NC(=O)[C@H](CCCNC(=N)N)NC(=O)CNC(=O)CNC(=O)[C@H](Cc2ccccc2)NC(=O)[C@@H](NC(=O)[C@H](CO)NC(=O)[C@H](CO)NC(=O)[C@H](CCCNC(=N)N)NC(=O)[C@H](CCCNC(=N)N)NC(=O)[C@H](CC(C)C)NC(=O)[C@@H](N)CO)CSSC[C@@H](C(=O)N[C@@H](CC(N)=O)C(=O)N[C@@H](CO)C(=O)N[C@@H](Cc2ccccc2)C(=O)N[C@@H](CCCNC(=N)N)C(=O)N[C@@H](Cc2ccc(O)cc2)C(=O)O)NC(=O)CNC(=O)[C@H](CC(C)C)NC(=O)CNC(=O)[C@H](CO)NC(=O)[C@H](CCC(N)=O)NC(=O)[C@H](C)NC(=O)CNC1=O [ANP, atrial natriuretic peptide, reference compound] as the molecule, how does the cGMP production ([4]; 1 μM ANP) read?
The cGMP production was 3.491±0.057 fmol/μg protein.

And the cGMP production ([4]; 5 μM ANP)?
The cGMP production was 6.046±0.074 fmol/μg protein.

What about the “OPA1 mRNA normalized to HPRT” value (OPA1 mRNA; ANP 5 μM) of the same molecule?
Its value is 4.21±0.24.
